The source of these data is patent US11926628B2 (Gilead Sciences, Inc., priority 2021, dated 2024).

One assay has as its target human DGKα (Homo sapiens (Human), UniProt P23743). Put plainly: DGKα Biochemical Activity Assay (ADP-Glo). Particulars: recombinant DGKα 1 nM, 100 μM ATP, 18:1 DAG/POPS/octylglucoside micelles, 1 hour at 25° C.; geometric mean; read-out: HTBS DGKa 1X ATP KM IC50. Summed up: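 Recombinant DGKα (1 nM final) was preincubated with compound for 15 min, then reacted for 1 h at 25 °C with 100 μM ATP and octylglucoside micelles of 0.85 mM 18:1 DAG and 6.75 mM POPS in pH 7.2 MOPS with 5 mM MgCl2. ADP formed was read by ADP-Glo luminescence. IC50 came from four-parameter fits normalized to DMSO and 50 μM CU3, and values were geometric means.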
Background: ADP-Glo turns the ADP formed in a reaction into a luminescent signal.

Assay [1] has as its system Jurkat NFκB-luciferase cells. Briefly: Jurkat NFκB-Luciferase Assay. It counts as cell-based. Particulars: Homo sapiens; Jurkat NFκB-luciferase cells activated with anti-CD3 antibody (OKT3), 2.5 hrs at 37° C.; geometric mean; read-out: DGK NFKb Luciferase EC50. Summed up:
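Jurkat NFκB-luciferase reporter cells stimulated on plate-bound anti-CD3 (5 ug/ml coating) with compound, 2.5 hrs at 37° C then 30 min at 25° C; luminescence read with One-Glo Ex. Normalized to DMSO (basal) and 1 micromolar compound (maximum) controls; EC50 from four-parameter fit, geometric mean across experiments.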

The structures appear in SMILES notation.

human DGKα, sequence (P23743 whole entry): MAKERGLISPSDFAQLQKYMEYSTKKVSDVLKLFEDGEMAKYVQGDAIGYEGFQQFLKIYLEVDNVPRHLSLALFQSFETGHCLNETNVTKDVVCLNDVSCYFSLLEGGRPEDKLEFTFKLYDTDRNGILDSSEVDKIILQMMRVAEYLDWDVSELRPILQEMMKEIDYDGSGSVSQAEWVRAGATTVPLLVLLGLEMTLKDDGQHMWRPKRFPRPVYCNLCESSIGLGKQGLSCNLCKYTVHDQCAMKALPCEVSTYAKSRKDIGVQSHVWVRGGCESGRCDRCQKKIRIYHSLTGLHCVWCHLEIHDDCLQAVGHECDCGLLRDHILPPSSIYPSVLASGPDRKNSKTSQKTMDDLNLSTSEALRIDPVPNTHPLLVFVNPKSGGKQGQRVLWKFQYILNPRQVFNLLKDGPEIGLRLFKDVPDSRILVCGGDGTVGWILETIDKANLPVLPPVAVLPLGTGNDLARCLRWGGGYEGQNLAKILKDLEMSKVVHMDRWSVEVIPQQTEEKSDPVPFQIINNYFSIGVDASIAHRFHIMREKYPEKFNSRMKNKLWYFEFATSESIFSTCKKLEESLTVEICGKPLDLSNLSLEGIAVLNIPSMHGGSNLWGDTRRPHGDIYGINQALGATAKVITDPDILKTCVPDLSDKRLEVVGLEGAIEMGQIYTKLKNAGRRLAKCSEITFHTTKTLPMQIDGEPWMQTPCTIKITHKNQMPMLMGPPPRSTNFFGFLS

As for `CN(c1cccc(C#CC2(C(F)(F)F)CC2)c1)c1nc2nncn2c2ncc(F)cc12` [Example 154, 3-fluoro-N-methyl-N-(3-((1-(trifluoromethyl)cyclopropyl)ethynyl)phenyl)pyrido[3,2-e][1,2,4]triazolo[4,3-a]pyrimidin-5-amine], at human DGKα, the half-inhibitory concentration (IC50) (usually the point on the concentration scale where inhibition reaches its midpoint) was 20.7 nM. In addition, in assay [1], the EC50 – broadly, the concentration at which the effect is half-maximal – is 3.54 nM.

In the case of `CN(c1cccc(-c2ccc(C3CC3)cc2)c1)c1nc2nncn2c2ncc(F)cc12` [Example 155, N-(4′-cyclopropyl-[1,1′-biphenyl]-3-yl)-3-fluoro-N-methylpyrido[3,2-e][1,2,4]triazolo[4,3-a]pyrimidin-5-amine], the 50% inhibitory concentration (IC50) at human DGKα was found to be 17.2 nM. Besides, the half-maximal effective concentration (EC50) in assay [1] stood at 0.707 nM.

On to `CN(c1cc(F)cc(C#CC2(C(F)(F)F)CC2)c1)c1nc2nncn2c2ncc(F)cc12` [Example 156, 3-fluoro-N-(3-fluoro-5-((1-(trifluoromethyl)cyclopropyl)ethynyl)phenyl)-N-methylpyrido[3,2-e][1,2,4]triazolo[4,3-a]pyrimidin-5-amine], for which the IC50 at human DGKα amounted to 10.7 nM. Further, the EC50 in assay [1] worked out at 2.69 nM.
